These compounds were tested against T1, S1P5 receptors (Homo sapiens, UniProt Q9H228) (assay: [35S]-GTPγS binding assay with CHO-S1P5 receptor membranes). Conditions: membranes of CHO cells expressing recombinant S1P5 receptors; measure of S1P5 agonism.
T1 construct: expressed in transfected cells; host or cells: CHO cells (membranes)
Format: biochemical
Protocol: CHO cells expressing recombinant S1P5 receptors were cultured in 500 cm^2 culture trays and, once confluent, rinsed and detached with cell-lifting buffer (10 mM HEPES, 154 mM NaCl, 6.85 mM EDTA, pH 7.4). Cells were then pelleted by centrifugation, resuspended, and homogenized in membrane preparation buffer (10 mM HEPES and 10 mM EDTA, pH 7.4) using a Polytron PT 1200E homogenizer (Kinematica, Luzern, Switzerland). Cellular proteins were pelleted by centrifugation at 48,000×g at 4° C. for 30 minutes. The resulting supernatant was discarded, and the pellet was re-suspended again in membrane preparation buffer, homogenized for a second time, and then centrifuged again as described above. The final cellular protein pellet was suspended in ice cold resuspension buffer (10 mM HEPES and 0.1 mM EDTA, pH 7.4), divided into aliquots, and stored at −80° C. until use.
Functional binding assays for [^35]-GTPγS were performed in 96-well non-binding surface plates with a final volume of 200 μL. The test compounds were serially diluted in DMSO and added to assay plates using a Tecan D300E digital printer with a total volume of […]. The control sphingosine-1-phosphate (SiP) was prepared separately by preparing a 400 μM stock solution from a 100 nmol pellet of SiP in 10 mM Na2CO3 with 2% […]. The serial dilution of SiP was done using complete assay buffer (20 mM HEPES, 10 mM MgCl2, 100 mM NaCl, 1 mM EDTA, 0.1% fatty acid free bovine serum albumin (BSA), and 30 μg/mL saponin, pH 7.4) and transferred to wells already containing 0.4 μL DMSO. All the wells were then loaded to a total volume of 40 μL of complete assay buffer, except the non-specific binding (NSB) wells. For NSB wells, 40 μL/well of 50 μM GTPγS (Sigma Aldrich, cat #G8634, St. Louis, MO) was added to wells containing 0.4 μL of DMSO. The assay was started by the addition of 120 μL/well of CHO-S1P receptor membrane solution containing 40 μg/mL of membrane protein, 16.67 μM guanosine diphosphate (GDP; Sigma Aldrich, cat #G7127, St. Louis, MO), and 2.5 mg/mL of WGA PVT SPA beads in complete buffer. Assay plates were then sealed and incubated at room temperature with gentle agitation for 30 minutes. Next, 40 μL/well of 1 nM of [^35]-GTPγS (PerkinElmer, cat #NEG030X250UC, Waltham, MA) in basic assay buffer (20 mM HEPES, 10 mM MgCl2, 100 mM NaCl, and 1 mM EDTA, pH7.4) was added to the assay plates to yield a final concentration of 200 pM and the plates were further incubated for 40 minutes at room temperature with gentle agitation. The assay was terminated by centrifugation of the plates at 1000 rpm for 3 minutes using an Eppendorf 5810R centrifuge (Eppendorf, Hamburg, Germany) and G protein bound radioactivity was quantitated using a MicroBeta2 microplate scintillation counter (PerkinElmer, Waltham, MA). As G protein bound radioactivity directly correlates to receptor activation and coupling to the G protein, this assay is a measure of S1P5 agonism.

T1 sequence (Q9H228 whole entry): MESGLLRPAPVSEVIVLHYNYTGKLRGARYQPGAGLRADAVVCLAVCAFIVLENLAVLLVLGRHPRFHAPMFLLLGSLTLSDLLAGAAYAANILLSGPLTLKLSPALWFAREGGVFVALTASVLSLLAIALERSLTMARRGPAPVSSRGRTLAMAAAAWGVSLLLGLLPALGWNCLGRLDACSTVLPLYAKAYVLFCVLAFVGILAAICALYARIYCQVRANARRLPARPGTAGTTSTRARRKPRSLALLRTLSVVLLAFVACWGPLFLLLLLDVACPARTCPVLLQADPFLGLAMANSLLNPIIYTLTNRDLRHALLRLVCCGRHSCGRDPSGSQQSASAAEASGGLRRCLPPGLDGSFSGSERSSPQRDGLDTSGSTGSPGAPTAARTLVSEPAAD

Structure (SMILES) | EC50 [nM]
Cc1cc(C2CN(c3c(Cl)cccc3Cl)C2)cc(C2CC2)c1CN1CCC(C(=O)O)CC1 [Compound 57, 1-(2-cyclopropyl-4-(1-(2,6-dichlorophenyl)azetidin-3-yl)-6-methylbenzyl)-piperidine-4-carboxylic acid] | ≤ 10
Cc1cc(C2CN(c3c(Cl)cccc3Cl)C2)cc(C)c1CN1CC(C(=O)O)C1 [Compound 59, 1-(4-(1-(2,6-dichlorophenyl)azetidin-3-yl)-2,6-dimethylbenzyl)azetidine-3-carboxylic acid] | ≤ 10
O=C(O)C1CCN(Cc2ccc(C3CN(c4c(Cl)cccc4Cl)C3)cn2)CC1 [Compound 18, 1-((5-(1-(2,6-dichlorophenyl)azetidin-3-yl)pyridin-2-yl)methyl)piperidine-4-carboxylic acid] | 100 to 1000
O=C(O)C1CCN(Cc2ccc(C3CN(c4c(F)cccc4F)C3)cc2)CC1 [Compound 14, 1-(4-(1-(2,6-difluorophenyl)azetidin-3-yl)benzyl)piperidine-4-carboxylic acid] | 100 to 1000
O=C(O)C1CN(Cc2ccc(C3CN(c4c(Cl)cccc4Cl)C3)cc2)C1 [Compound 13, 1-(4-(1-(2,6-dichlorophenyl)azetidin-3-yl)benzyl)azetidine-3-carboxylic acid] | ≤ 10
O=C(O)C1CCN(Cc2ccc(C3CN(c4c(Cl)cccc4Cl)C3)c(F)c2)CC1 [Compound 22, 1-(4-(1-(2,6-dichlorophenyl)azetidin-3-yl)-3-fluorobenzyl)piperidine-4-carboxylic acid] | ≤ 10
O=C(O)C1CCN(C2CCc3cc(N4CC(c5ccccc5F)C4)ccc32)CC1 (single isomer, unassigned) [Compound 10b, 1-(5-(3-(2-fluorophenyl)azetidin-1-yl)-2,3-dihydro-1H-inden-1-yl)piperidine-4-carboxylic acid] | 1000 to 10000
Cc1cc(C2CN(c3c(Cl)cccc3Cl)C2)cc(C)c1CN1CCC(C(=O)O)C(C)C1 (centres unmarked) [Compound 61, 1-(4-(1-(2,6-dichlorophenyl)azetidin-3-yl)-2,6-dimethylbenzyl)-3-methyl-piperidine-4-carboxylic acid] | ≤ 10
O=C(O)[C@H]1CCN(Cc2ccc(C3CN(c4c(Cl)cccc4Cl)C3)cc2)C1 [Compound 12a, (S)-1-(4-(1-(2,6-dichlorophenyl)azetidin-3-yl)benzyl)pyrrolidine-3-carboxylic acid] | 10 to 100
Cc1cc(N2CC(F)(c3c(Cl)cccc3Cl)C2)cc(C)c1CN1CCC(C(=O)O)CC1 [Compound 37, 1-(4-(3-(2,6-dichlorophenyl)-3-fluoroazetidin-1-yl)-2,6-dimethylbenzyl)-piperidine-4-carboxylic acid] | 10 to 100
Cc1cc(CN2CCC(C(=O)O)CC2)nc(C)c1C1CN(c2c(Cl)cccc2Cl)C1 [Compound 84, 1-((5-(1-(2,6-dichlorophenyl)azetidin-3-yl)-4,6-dimethyl-pyridin-2-yl)methyl)piperidine-4-carboxylic acid] | 10 to 100
O=C(O)C1CCN(C2CCc3cc(C4CN(c5c(Cl)cccc5Cl)C4)ccc32)C1 (centres unmarked) [Compound 7, 1-(5-(1-(2,6-dichlorophenyl)azetidin-3-yl)-2,3-dihydro-1H-inden-1-yl)pyrrolidine-3-carboxylic acid] | ≤ 10
Cc1cc(CN2CCC(C(=O)O)CC2)c(C)nc1C1CN(c2c(Cl)cccc2Cl)C1 [Compound 83, 1-((6-(1-(2,6-dichlorophenyl)azetidin-3-yl)-2,5-dimethyl-pyridin-3-yl)methyl)piperidine-4-carboxylic acid] | 10 to 100
Cc1cc(C2CN(c3c(Cl)cccc3Cl)C2)cc(C)c1CN1CCC(C(=O)O)CC1C (centres unmarked) [Compound 63, 1-(4-(1-(2,6-dichlorophenyl)azetidin-3-yl)-2,6-dimethylbenzyl)-2-methyl-piperidine-4-carboxylic acid] | 10 to 100
Cc1cc(C(C)(C)N2CCC(C(=O)O)CC2)cc(C)c1C1CN(c2c(Cl)cccc2Cl)C1 [Compound 86, 1-(2-(4-(1-(2,6-dichlorophenyl)azetidin-3-yl)-3,5-dimethylphenyl)propan-2-yl)piperidine-4-carboxylic acid] | ≤ 10
O=C(O)C1CCN(Cc2ccc(N3CC(c4c(Cl)cccc4Cl)C3)nc2)CC1 [Compound 32, 1-((6-(3-(2,6-dichlorophenyl)azetidin-1-yl)pyridin-3-yl)methyl)piperidine-4-carboxylic acid] | 10 to 100
O=C(O)C1CCN(C2CCc3cc(C4CN(c5c(Cl)cccc5Cl)C4)ccc32)CC1 (single isomer, unassigned) [Compound 1b, 1-(5-(1-(2,6-dichlorophenyl)azetidin-3-yl)-2,3-dihydro-1H-inden-1-yl)piperidine-4-carboxylic acid] | 100 to 1000
O=C(O)C1CCN(C2CCc3cc(N4CC(c5ccccc5F)C4)ccc32)CC1 (single isomer, unassigned) [Compound 10a, 1-(5-(3-(2-fluorophenyl)azetidin-1-yl)-2,3-dihydro-1H-inden-1-yl)piperidine-4-carboxylic acid] | 10 to 100

Now from value to compound:

EC50 [nM] | Structure (SMILES)
100 to 1000 | O=C(O)C1CCN(Cc2ccc(N3CC(c4c(F)cccc4F)C3)cc2)CC1 [Compound 27, 1-(4-(3-(2,6-difluorophenyl)azetidin-1-yl)benzyl)piperidine-4-carboxylic acid]
100 to 1000 | Cc1cc(C2CN(c3c(Cl)cccc3Cl)C2)ncc1CN1CCC(C(=O)O)CC1 [Compound 78, 1-((6-(1-(2,6-dichlorophenyl)azetidin-3-yl)-4-methylpyridin-3-yl)methyl)-piperidine-4-carboxylic acid]
10 to 100 | O=C(O)C1CCN(Cc2ccc(C3CN(c4c(Cl)cccc4Cl)C3)nc2)CC1 [Compound 21, 1-((6-(1-(2,6-dichlorophenyl)azetidin-3-yl)pyridin-3-yl)methyl)piperidine-4-carboxylic acid]
10 to 100 | Cc1cc(C2CN(c3ccccc3F)C2)cc(C)c1CN1CCC(C(=O)O)CC1 [Compound 46, 1-(4-(1-(2-fluorophenyl)azetidin-3-yl)-2,6-dimethylbenzyl)piperidine-4-carboxylic acid]
≤ 10 | Cc1cc(C2CN(c3c(Cl)cccc3Cl)C2)cc(Cl)c1CN1CCC(C(=O)O)CC1 [Compound 51, 1-(2-chloro-4-(1-(2,6-dichlorophenyl)azetidin-3-yl)-6-methylbenzyl)-piperidine-4-carboxylic acid]
≤ 10 | O=C(O)C1CCN(Cc2ccc(C3CN(c4c(Cl)cccc4Cl)C3)c3ccccc23)CC1 [Compound 54, 1-((4-(1-(2,6-dichlorophenyl)azetidin-3-yl)naphthalen-1-yl)methyl)-piperidine-4-carboxylic acid]
≤ 10 | Cc1cc(C2CN(c3c(C)cccc3C#N)C2)cc(C)c1CN1CCC(C(=O)O)CC1 [Compound 74, 1-(4-(1-(2-cyano-6-methylphenyl)azetidin-3-yl)-2,6-dimethylbenzyl)-piperidine-4-carboxylic acid]
10 to 100 | O=C(O)C1CCN(Cc2ccc(N3CC(c4c(Cl)cccc4Cl)C3)cn2)CC1 [Compound 29, 1-((5-(3-(2,6-dichlorophenyl)azetidin-1-yl)pyridin-2-yl)methyl)piperidine-4-carboxylic acid]
≤ 10 | Cc1cc(N2CC(c3c(Cl)cccc3Cl)C2)cc(C)c1CN1CCC(C(=O)O)CC1 [Compound 28, 1-(4-(3-(2,6-dichlorophenyl)azetidin-1-yl)-2,6-dimethylbenzyl)piperidine-4-carboxylic acid]
10 to 100 | Cc1cc(C2CN(c3ccccc3C3CC3)C2)cc(C)c1CN1CCC(C(=O)O)CC1 [Compound 70, 1-(4-(1-(2-cyclopropylphenyl)azetidin-3-yl)-2,6-dimethylbenzyl)piperidine-4-carboxylic acid]
1000 to 10000 | O=C(O)C1CCN(Cc2ccc(N3CC(F)(c4c(Cl)cccc4Cl)C3)cc2)CC1 [Compound 35, 1-(4-(3-(2,6-dichlorophenyl)-3-fluoroazetidin-1-yl)benzyl)piperidine-4-carboxylic acid]

— US12552771B2, “Carboxylic acid containing azetidinyl compounds for the treatment of neurodegenerative diseases” (Celgene Corporation, priority 2021, dated 2026)
